In PMC11111408, “Concurrent inhibition of oncogenic and wild-type RAS-GTP for cancer therapy” (Nature, 2024):
“And” between values parts separate entries of the source, which are not always exact repeats. Equal entries are not always repeated.

Columns and labels:
NRAS^Q61R = NRAS^Q61R (Homo sapiens, UniProt P01111+P62937, Q61R); assay: RAS binding affinity of compound-bound CYPA (Kd2), SPR; conditions: steady state SPR, (95% CI)
HRAS WT = HRAS WT (Homo sapiens, UniProt P01112+P62937); assay: as above; conditions: steady state SPR, (95% CI)
KRAS^G13D = KRAS^G13D (Homo sapiens, UniProt P01116+P62937, G13D); assay: Cellular RAS–CYPA binding (tri-complex formation), nano-BRET in U2OS cells; format: cell-based; conditions: (95% CI)
Excerpt: KRAS4B, or other small GTPases, containing the indicated mutations were cloned in pNLF-N or pHTN plasmids for expression with an N-terminal nanoluciferase or HaloTag fusion, respectively. […] The following day, the cells were collected by Trypsin and reseeded in a white tissue culture-treated 96-well plate in OptiMem phenol red-free medium (Gibco) containing 4% FBS and a 1:1,000 dilution of NanoBRET 618 HaloTag ligand (Promega). For endpoint concentration response curves, vivazine nanoluciferase substrate was added to 1× concentration in OptiMem phenol red-free medium with 4% FBS. Varying concentrations of inhibitor were added and incubated for 1 or 4 h before the nano-BRET signal was measured on a Perkin Elmer Envision plate reader. For kinetic assays, endurazine nanoluciferase substrate was used in place of vivazine, and the plate was placed in a Cytation5 multi-mode reader pre-equilibrated to 37 °C and 5% CO2.

A375 cells = assay: Cellular ERK phosphorylation (pERK); format: cell-based, human
[1] = tested on: DUSP6 mRNA in NCI-H441 xenograft tumours; assay: In vivo pharmacodynamic analysis by DUSP6 qPCR in NCI-H441 CDX tumours; design: species or system mouse; conditions: for % inhibition of DUSP6 vs control: single dose, tumor, individual animals
Method: RNA extraction and analysis of DUSP6 levels by in tumour tissue were performed as previously described.

[2] = tested on: KRAS^G12X PDAC, CRC and NSCLC xenograft models; assay: Panel of 15 KRAS^G12X CDX and PDX xenograft models; format: in vivo, mouse; conditions: 10 mg/kg
Method: Xenograft studies were conducted at GenenDesign, Pharmaron, Wuxi AppTec, the laboratory of P. Lito, and the laboratory of C. Ambrogio. […] All procedures related to animal handling, care and treatment were conducted in compliance with all applicable regulations and guidelines of the relevant Institutional Animal Care and Use Committee (IACUC). […] Experimental details are supplied in the Supplementary Methods.

CCn1c(-c2cc(N3CCN(C4CC4)CC3)cnc2[C@H](C)OC)c2c3cc(ccc31)-c1csc(n1)C[C@H](NC(=O)[C@H]1[C@@H]3COC[C@@H]31)C(=O)N1CCC[C@H](N1)C(=O)OCC(C)(C)C2 [RMC-7977]
Kd (NRAS^Q61R): 239 nM | Kd (HRAS WT): 94.7 nM | EC50 (KRAS^G13D): 4.99 nM | inhibition of downstream signalling (pERK) (A375 cells; A375, BRAF^V600E, RAS-independent): No inhibition | EC50 (A375 cells; Homo sapiens, A-375, A375 (BRAF^V600E)): > 10000 nM | EC50 ([1]; Mus musculus, NCI-H441, po, read-out: EC50, total tumour concentration versus DUSP6 inhibition): 130 nM | EC90 ([1]; Mus musculus, NCI-H441 CDX, single oral administration, read-out: EC90, tumour concentration versus DUSP6 inhibition): 1450 nM | RMC-7977 10 mg/kg po dusp6 ([1]; NCI-H441 CDX tumour DUSP6 mRNA, single oral 10 mg/kg, 1 h, individual replicates, 10 mg/kg): 34.819 and 101.252 and 98.4831 | RMC-7977 25 mg/kg po dusp6 ([1]; NCI-H441 CDX tumour DUSP6 mRNA, single oral 25 mg/kg, 1 h, individual replicates, 25 mg/kg): 26.2056 and 15.6903 and 16.7583 | suppression of tumour DUSP6 levels ([1]; NCI-H441 CDX, single oral dose of 10 mg kg^−1, at 8 h): 91% | % inhibition of DUSP6 vs control ([1]; 8h, 1 mg/kg): 63.5% and 36.8% and 52.6% | % inhibition of DUSP6 vs control ([1]; 8h, 5 mg/kg): 53.7% and 91.7% and 1.5% | % inhibition of DUSP6 vs control ([1]; 8h, 10 mg/kg): 95.7% and 96.4% and 96.3% and 93.6937% and 85.7607% and 93.075% | % inhibition of DUSP6 vs control ([1]; 8h, 25 mg/kg): 95.995% and 81.4698% and 87.9011% | % inhibition of DUSP6 vs control ([1]; 24h, 1 mg/kg): 0% and 16.6% | % inhibition of DUSP6 vs control ([1]; 24h, 5 mg/kg): 6.8% and 29.4% and 61.8% | % inhibition of DUSP6 vs control ([1]; 24h, 10 mg/kg): 89.7% and 90.2% and 86.9% and 86.5288% and 67.1731% and 84.3639% | % inhibition of DUSP6 vs control ([1]; 24h, 25 mg/kg): 94.1768% and 94.6786% and 96.3905% | % inhibition of DUSP6 vs control ([1]; 48h, 1 mg/kg): 0% and 32.5% | % inhibition of DUSP6 vs control ([1]; 48h, 5 mg/kg): 3.9% and 33.4% and 22.2% | % inhibition of DUSP6 vs control ([1]; 48h, 10 mg/kg): 72.3% and 74.6% and 69.6% and 56.232% and 64.817% and 89.3572% | % inhibition of DUSP6 vs control ([1]; 48h, 25 mg/kg): 81.914% and 86.388% and 94.0545% | % inhibition of DUSP6 vs control ([1]; 72h, 5 mg/kg): 0% and 11.9% | % inhibition of DUSP6 vs control ([1]; 72h, 10 mg/kg): 0.2% and 45.2% and 48.1% and 87.4744% and 67.1731% | % inhibition of DUSP6 vs control ([1]; 72h, 25 mg/kg): 87.2112% and 72.4915% and 81.7249% | % Tumor Volume Change ([2]; CRC039, RMC-7977 10 mg/kg po qd, day 0 on study, individual animals): 241.9% and 219.3% and 159.4% | % Tumor Volume Change ([2]; CRC039, RMC-7977 10 mg/kg po qd, day 4 on study, individual animals): 220.3% and 125.3% and 145.8% | % Tumor Volume Change ([2]; CRC039, RMC-7977 10 mg/kg po qd, day 7 on study, individual animals): 121.8% and 118.8% and 123% | % Tumor Volume Change ([2]; CRC039, RMC-7977 10 mg/kg po qd, day 11 on study, individual animals): 74.4% and 112.7% and 94.2% | % Tumor Volume Change ([2]; CRC039, RMC-7977 10 mg/kg po qd, day 14 on study, individual animals): 80.2% and 106.6% and 94.1% | % Tumor Volume Change ([2]; CRC039, RMC-7977 10 mg/kg po qd, day 18 on study, individual animals): 81.1% | % Tumor Volume Change ([2]; PDAC G12D, BALB/c nude mice, 10 mg/kg po qd, day 0, individual animals): 153.24% and 151.4% | % Tumor Volume Change ([2]; PDAC G12D, BALB/c nude mice, 10 mg/kg po qd, day 3, individual animals): 209.83% and 173.4% | % Tumor Volume Change ([2]; PDAC G12D, BALB/c nude mice, 10 mg/kg po qd, day 7, individual animals): 163.81% and 154.57% | % Tumor Volume Change ([2]; PDAC G12D, BALB/c nude mice, 10 mg/kg po qd, day 14, individual animals): 89.27% and 198.15% | % Tumor Volume Change ([2]; PDAC G12D, BALB/c nude mice, 10 mg/kg po qd, day 17, individual animals): 109.93% and 119.08% | % Tumor Volume Change ([2]; PDAC G12D, BALB/c nude mice, 10 mg/kg po qd, day 21, individual animals): 193.02% and 99.24% | % Tumor Volume Change ([2]; PDAC G12D, BALB/c nude mice, 10 mg/kg po qd, day 24, individual animals): 160.39% and 128.81% | % Tumor Volume Change ([2]; PDAC G12D, BALB/c nude mice, 10 mg/kg po qd, day 28, individual animals): 162.11% and 110.97%
